Measurements reported in US9695155B2, “Herbicidal substituted pyrimidinyloxy benzene compounds” (E. I. DU PONT DE NEMOURS AND COMPANY, priority 2013, dated 2017).

Key:
[1] = tested on: giant foxtail; test: Test A preemergence; type: in vivo, Setaria faberii; details: for Foxtail, Giant plant response rating: 0 to 100 scale, 0 no effect, 100 complete control, approx. 10 days
Source text: (§1) Seeds of plant species selected from barnyardgrass (Echinochloa crus-galli), kochia (Kochia scoparia), ragweed (common ragweed, Ambrosia elatior), Italian ryegrass (Lolium multiflorum), large (Lg) crabgrass (Digitaria sanguinalis), giant foxtail (Setaria faberii), morningglory (Ipomoea spp.), pigweed (Amaranthus retroflexus), velvetleaf (Abutilon theophrasti), wheat (Triticum aestivum), and corn (Zea mays) were planted into a blend of loam soil and sand and treated preemergence with a directed soil spray using test chemicals formulated in a non-phytotoxic solvent mixture which included a surfactant.
(§2) At the same time, plants selected from these crop and weed species and also blackgrass (Alopecurus myosuroides), and galium (catchweed bedstraw, Galium aparine) were planted in pots containing the same blend of loam soil and sand and treated with postemergence applications of test chemicals formulated in the same manner. Plants ranged in height from 2 to 10 cm and were in the one- to two-leaf stage for the postemergence treatment. Treated plants and untreated controls were maintained in a greenhouse for approximately 10 days, after which time all treated plants were compared to untreated controls and visually evaluated for injury. Plant response ratings, summarized in Table A, are based on a 0 to 100 scale where 0 is no effect and 100 is complete control. A dash (-) response means no test result.

[2] = tested on: barnyardgrass; test: Test A preemergence; type: in vivo, Echinochloa crus-galli; details: for Barnyardgrass plant response rating: 500 g ai/ha, approx. 10 days
Source text: as §1, §2

[3] = tested on: pigweed; test: Test A postemergence; type: in vivo, Amaranthus retroflexus
Source text: as §1, §2

[4] = tested on: velvetleaf; test: Test A postemergence; type: in vivo, Abutilon theophrasti
Source text: as §1, §2

[5] = tested on: large (Lg) crabgrass; test: Test A preemergence; type: in vivo, Digitaria sanguinalis; details: for Crabgrass, Large plant response rating: 500 g ai/ha, approx. 10 days
Source text: as §1, §2

[6] = tested on: velvetleaf; test: Test A preemergence; type: in vivo, Abutilon theophrasti; details: for Velvetleaf plant response rating: 0 to 100 scale, 0 no effect, 100 complete control, approx. 10 days
Source text: as §1, §2

[7] = tested on: corn; test: Test A preemergence; type: in vivo, Zea mays; details: for Corn plant response rating: 500 g ai/ha, approx. 10 days
Source text: as §1, §2

[8] = tested on: wheat; test: Test A preemergence; type: in vivo, Triticum aestivum; details: for Wheat plant response rating: 0 to 100 scale, 0 no effect, 100 complete control, approx. 10 days
Source text: as §1, §2

[9] = tested on: pigweed; test: Test A preemergence; type: in vivo, Amaranthus retroflexus; details: for Pigweed plant response rating: 0 to 100 scale, 0 no effect, 100 complete control, approx. 10 days
Source text: as §1, §2

[10] = tested on: wheat; test: Test A postemergence; type: in vivo, Triticum aestivum
Source text: as §1, §2

[11] = tested on: corn; test: Test A postemergence; type: in vivo, Zea mays
Source text: as §1, §2

[12] = tested on: morningglory; test: Test A postemergence; type: in vivo, Ipomoea spp.
Source text: as §1, §2

[13] = tested on: large (Lg) crabgrass; test: Test A postemergence; type: in vivo, Digitaria sanguinalis
Source text: as §1, §2

[14] = tested on: giant foxtail; test: Test A postemergence; type: in vivo, Setaria faberii
Source text: as §1, §2

[15] = tested on: barnyardgrass; test: Test A postemergence; type: in vivo, Echinochloa crus-galli
Source text: as §1, §2

[16] = tested on: morningglory; test: Test A preemergence; type: in vivo, Ipomoea spp.; details: for Morningglory plant response rating: 0 to 100 scale, 0 no effect, 100 complete control, approx. 10 days
Source text: as §1, §2

[17] = 1000 g ai/ha, 0 to 100 scale, 0 no effect, 100 complete control
[18] = 125 g ai/ha, 0 to 100 scale where 0 is no effect and 100 is complete control
[19] = 0 to 100 scale, 0 no effect, 100 complete control
[20] = 500 g ai/ha, 0 to 100 scale, 0 no effect, 100 complete control
[21] = 500 g ai/ha, 0 to 100 scale where 0 is no effect and 100 is complete control

Fc1cnc(Oc2ccccc2-n2cccn2)nc1 [Compound 14]
Foxtail, Giant plant response rating ([1]; 1000 g ai/ha): 90 | Plant response rating, Barnyardgrass [2, 17]: 30 | Plant response rating, Pigweed [3, 17]: 100 | Plant response rating, Velvetleaf [4, 17]: 90 | Plant response rating, Crabgrass, Large [5, 17]: 90 | Velvetleaf plant response rating ([6]; 1000 g ai/ha): 90 | Plant response rating, Corn [7, 17]: 0 | Wheat plant response rating ([8]; 1000 g ai/ha): 20 | Pigweed plant response rating ([9]; 1000 g ai/ha): 100 | Plant response rating, Wheat [10, 17]: 20 | Plant response rating, Corn [11, 17]: 20 | Plant response rating, Morningglory [12, 17]: 70 | Plant response rating, Crabgrass, Large [13, 17]: 30 | Plant response rating, Foxtail, Giant [14, 17]: 40 | Plant response rating, Barnyardgrass [15, 17]: 20 | Morningglory plant response rating ([16]; 1000 g ai/ha): 20

COc1cccc(-n2cc(Br)cn2)c1Oc1ncc(Cl)cn1 [Compound 41]
Plant response rating, Foxtail, Giant [1, 18]: 10 | Foxtail, Giant plant response rating ([1]; 500 g ai/ha): 80 | Plant response rating, Barnyardgrass [2, 18]: 10 | Barnyardgrass plant response rating [2, 19]: 50 | Plant response rating, Pigweed [3, 18]: 50 | Plant response rating, Pigweed [3, 20]: 80 | Plant response rating, Velvetleaf [4, 18]: 70 | Plant response rating, Velvetleaf [4, 20]: 100 | Plant response rating, Crabgrass, Large [5, 18]: 30 | Crabgrass, Large plant response rating [5, 19]: 70 | Plant response rating, Velvetleaf [6, 18]: 60 | Velvetleaf plant response rating ([6]; 500 g ai/ha): 70 | Plant response rating, Corn [7, 18]: 0 | Corn plant response rating [7, 19]: 0 | Plant response rating, Wheat [8, 18]: 0 | Wheat plant response rating ([8]; 500 g ai/ha): 0 | Plant response rating, Pigweed [9, 18]: 70 | Pigweed plant response rating ([9]; 500 g ai/ha): 100 | Plant response rating, Wheat [10, 18]: 0 | Plant response rating, Wheat [10, 20]: 0 | Plant response rating, Corn [11, 18]: 0 | Plant response rating, Corn [11, 20]: 20 | Plant response rating, Morningglory [12, 18]: 20 | Plant response rating, Morningglory [12, 20]: 30 | Plant response rating, Crabgrass, Large [13, 18]: 20 | Plant response rating, Crabgrass, Large [13, 20]: 70 | Plant response rating, Foxtail, Giant [14, 18]: 20 | Plant response rating, Foxtail, Giant [14, 20]: 80 | Plant response rating, Barnyardgrass [15, 18]: 10 | Plant response rating, Barnyardgrass [15, 20]: 50 | Plant response rating, Morningglory [16, 18]: 0 | Morningglory plant response rating ([16]; 500 g ai/ha): 0

N#Cc1cnn(-c2ccccc2Oc2ncc(Cl)cn2)n1 [Compound 55]
Foxtail, Giant plant response rating ([1]; 1000 g ai/ha): 90 | Plant response rating, Barnyardgrass [2, 17]: 40 | Plant response rating, Pigweed [3, 17]: 90 | Plant response rating, Velvetleaf [4, 17]: 100 | Plant response rating, Crabgrass, Large [5, 17]: 90 | Velvetleaf plant response rating ([6]; 1000 g ai/ha): 100 | Plant response rating, Corn [7, 17]: 0 | Wheat plant response rating ([8]; 1000 g ai/ha): 0 | Pigweed plant response rating ([9]; 1000 g ai/ha): 90 | Plant response rating, Wheat [10, 17]: 0 | Plant response rating, Corn [11, 17]: 20 | Plant response rating, Morningglory [12, 17]: 80 | Plant response rating, Crabgrass, Large [13, 17]: 40 | Plant response rating, Foxtail, Giant [14, 17]: 60 | Plant response rating, Barnyardgrass [15, 17]: 10 | Morningglory plant response rating ([16]; 1000 g ai/ha): 0

N#Cc1cnn(-c2ccccc2Oc2ncc(Br)cn2)n1 [Compound 56]
Foxtail, Giant plant response rating ([1]; 1000 g ai/ha): 30 | Plant response rating, Barnyardgrass [2, 17]: 0 | Plant response rating, Pigweed [3, 17]: 90 | Plant response rating, Velvetleaf [4, 17]: 100 | Plant response rating, Crabgrass, Large [5, 17]: 80 | Velvetleaf plant response rating ([6]; 1000 g ai/ha): 90 | Plant response rating, Corn [7, 17]: 20 | Wheat plant response rating ([8]; 1000 g ai/ha): 0 | Pigweed plant response rating ([9]; 1000 g ai/ha): 100 | Plant response rating, Wheat [10, 17]: 0 | Plant response rating, Corn [11, 17]: 20 | Plant response rating, Morningglory [12, 17]: 0 | Plant response rating, Crabgrass, Large [13, 17]: 40 | Plant response rating, Foxtail, Giant [14, 17]: 30 | Plant response rating, Barnyardgrass [15, 17]: 30 | Morningglory plant response rating ([16]; 1000 g ai/ha): 0

FC(F)(F)Oc1cccc(Oc2ncc(Cl)cn2)c1-n1cc(Br)cn1 [Compound 78]
Foxtail, Giant plant response rating ([1]; 500 g ai/ha): 100 | Barnyardgrass plant response rating [2, 19]: 80 | Plant response rating, Pigweed [3, 21]: 100 | Plant response rating, Velvetleaf [4, 21]: 100 | Crabgrass, Large plant response rating [5, 19]: 100 | Velvetleaf plant response rating ([6]; 500 g ai/ha): 50 | Corn plant response rating [7, 19]: 10 | Wheat plant response rating ([8]; 500 g ai/ha): 10 | Pigweed plant response rating ([9]; 500 g ai/ha): 100 | Plant response rating, Wheat [10, 21]: 20 | Plant response rating, Corn [11, 20]: 30 | Plant response rating, Morningglory [12, 21]: 90 | Plant response rating, Crabgrass, Large [13, 20]: 100 | Plant response rating, Foxtail, Giant [14, 21]: 90 | Plant response rating, Barnyardgrass [15, 20]: 50 | Morningglory plant response rating ([16]; 500 g ai/ha): 20
